In ChEMBL document CHEMBL5608109, “Hepatotoxicity screening of Donated Chemical Probes” (2024):
Where a SMILES comes first, the peptide text is derived from it. [ ]: non-standard residue; d: D form. Arg(Me) = CNC(=N)NCCC[C@H](N)C(=O)O; d4Pal = N[C@H](Cc1ccncc1)C(=O)O; azaGly = NNC(=O)O

System: Hepatocyte spheroids
Experiment: This assay model using primary human hepatocyte (PHH) spheroids, which are cultured in Williams E medium. After spheroid formation, cells are exposed to compounds in an FBS-free culture medium. […] Imaging is performed on an Opera Phenix High-Content Screening System, allowing quantification of proliferation as a readout for evaluating the effects of chemical probes on hepatocyte regeneration.
Format: functional
Settings: read-out: Cell Viability; for viability at 1 µM: Concentration 1 uM; for viability at 10 µM: Concentration 10 uM; for viability at 0.1 µM: Concentration 0.1 uM

Compound	viability at 1 µM	viability at 10 µM	viability at 0.1 µM
CC[C@H](CC(=O)O)n1c(=O)c2ncccc2n(Cc2cn(C)c3cc(C)cc(C)c23)c1=O [BI-1942]	53.2% (toxic)	65.2% (toxic)	
c1ccc2oc(-c3csc(C4CCN(Cc5nc6ncccc6[nH]5)CC4)n3)cc2c1	88.5% (non-toxic)	35.4% (toxic)	
C[C@@H](NC(=O)Nc1cc2[nH]ncc2c(CO)n1)c1ccccc1 [ERKi]	75% (non-toxic)	75.2% (non-toxic)	
CC(C)(O)[C@H](F)CN1Cc2cc(NC(=O)c3cnn4cccnc34)c(N3CCOCC3)cc2C1=O	118% (non-toxic)	90.2% (non-toxic)	
O=C(NNS(=O)(=O)c1ccccc1F)c1cc(F)cc(-c2ccccn2)c1 [WM-1119]	107% (non-toxic)	75.2% (non-toxic)	
O=C(NCc1ncc(C(F)(F)F)cc1Cl)c1ccc2c(c1)C1(CCS(=O)(=O)CC1)[C@H](C1CC1)N2S(=O)(=O)c1ccc(F)cc1 [BAY-784]	107% (non-toxic)		103% (non-toxic)
C[C@H](c1ccnc(Nc2nc3ccc(-c4cc(N(C)C)ncn4)cc3[nH]2)c1)N1CCN(C(=O)CC(F)(F)F)CC1 [BAY-985]	68.2% (non-toxic)	38.1% (toxic)	
CCC(=O)N[C@H]1CC[C@@H](C(=O)N(C)c2ccc(-c3nc4ccccc4o3)cc2)C1 [BI 99179]	81.6% (non-toxic)	55.6% (toxic)	
N#CC1(c2ccccn2)CCN(Cc2cc(C(=O)O)c(=O)n3ccccc23)CC1 [MSD-M1PAM]	112% (non-toxic)	87.1% (non-toxic)	
COc1ccc2c(O[C@@H]3C[C@H]4C(=O)N[C@]5(C(=O)O)CC5/C=C\CCCCC[C@H](NC(=O)OC5CCCC5)C(=O)N4C3)cc(-c3csc(NC(=O)C(C)C)n3)nc2c1C (stereo not given in full) [BI 1230]	106% (non-toxic)	0.711% (toxic)	
CC1=C(C#N)C(c2ccc3[nH]nc(C)c3c2)C(C#N)=C(C)N1 [BAY-474]	99.5% (non-toxic)	111% (non-toxic)	
CC1CCN(c2ccnc(NCc3cn(C)cn3)n2)CC1 [TP-040]	127% (non-toxic)	133% (non-toxic)	
Cc1cnc(-c2cc(Cl)ccc2F)cc1-n1c(=O)n(CC(N)=O)c2cnccc21 [TP-008]	90% (non-toxic)	99.1% (non-toxic)	
N#CN1CC[C@H](C(=O)Nc2nc3c(s2)CN(C(=O)CN=[N+]=[N-])CC3)C1 [8RK64]	97.6% (non-toxic)	70.7% (toxic)	
CN([C@@H]1CCc2c(CC(=O)O)c3ccccc3n2C1)S(=O)(=O)c1ccc(F)cc1 [MK-7246]	107% (non-toxic)	111% (non-toxic)	
CNC(=O)c1cc(C(=O)N[C@H]2[C@@H]3COC[C@@H]32)cc2c1O[C@H](CF)[C@H]2c1ccccc1 [GSK973]	103% (non-toxic)	88.7% (non-toxic)	
CC(=O)Nc1c(F)cc(C(=O)N[C@H]2CC[C@H](O)CC2)cc1O[C@@H](C)c1ccccc1 [GSK046]	96.7% (non-toxic)	85.2% (non-toxic)	
O=C1CCc2cc(Nc3cc(OC4CCOCC4)c([N+](=O)[O-])cc3Cl)ccc2N1	147% (non-toxic)	76% (non-toxic)	
CCS(=O)(=O)c1cc2cc(C[C@](O)(CC(C)(C)c3ccc(F)cc3C(N)=O)C(F)(F)F)[nH]c2cn1 [BI 653048]	116% (non-toxic)	116% (non-toxic)	
CN(C)CC#Cc1ccc(OCCCc2sc(N3CCc4cccc(C(=O)Nc5nc6ccccc6s5)c4C3)nc2C(=O)O)c(F)c1 [A-1155463]	120% (non-toxic)	117% (non-toxic)	
O=C(N1CCS(=O)(=O)CC1)N1C[C@H](c2ccc(OC(F)(F)F)cc2)C[C@H](c2nc(C3CC3)no2)C1 [BAY-386]	121% (non-toxic)	111% (non-toxic)	
NS(=O)(=O)c1cc(NC(=O)Cc2ccccc2)ccc1Oc1cccc(Cl)c1 [BAY-1797]	111% (non-toxic)	19.3% (toxic)	
Cn1c(C2(NC(=O)c3ccc4c(C5CCCC5)c(-c5ncc(Br)cn5)n(C)c4c3)CCC2)nc2ccc(/C=C/C(=O)O)cc21 [DELEOBUVIR]	135% (non-toxic)	157% (non-toxic)	
COc1ccc2c(c1)O[C@@H](c1ccc(OC)c(OC)c1)C[C@H]2NC(=O)C1(c2ccc3c(c2)OC(F)(F)O3)CC1 [A-1596586]	104% (non-toxic)	88.5% (non-toxic)	
CO[C@@H](C)c1c(Nc2ccc([C@H](N(C)C(=O)C3CCS(=O)(=O)CC3)C(F)(F)F)cc2)cnc2cc(Cl)nn12 [NVS-MALT1]	99.7% (non-toxic)	33.9% (toxic)	

Compound	viability at 1 µM	viability at 10 µM	viability at 0.1 µM
CN1CCN(c2cnc3c(C4CCN(C(=O)c5ccc(OC(F)(F)F)cc5N)CC4)ncnc3c2)CC1 [BAY-885]	99.8% (non-toxic)	98.6% (non-toxic)	
C[C@H](NC(=O)c1cnc2n1[C@](C)(Cc1ccc(C#N)cc1)C(=O)N2c1cc(Cl)c(F)c(Cl)c1)C(=O)NC1(c2ccccn2)CC1 [BI 1950]	110% (non-toxic)	121% (non-toxic)	
COc1cccc(CNC(=O)c2nc3scc(COCc4ccc(C(=O)O)cc4)c3c(=O)[nH]2)c1 [T-26c]	99.4% (non-toxic)		125% (non-toxic)
COc1ccc2cc(OCC3(C(=O)O)CN(C(=O)c4ccc(F)cc4)C3)ccc2c1 [PF-04418948]	153% (toxic)		157% (non-toxic)
CNC(=N)NCCC[C@H](NC(=O)[C@H](CC(C)C)NC(=O)NNC(=O)[C@H](Cc1ccccc1)NC(=O)[C@H](CO)NC(=O)[C@H](CC(N)=O)NC(=O)[C@@H](Cc1ccncc1)NC(=O)[C@H](N)Cc1ccc(O)cc1)C(=O)N[C@@H](Cc1ccccc1)C(N)=O [KISS1-305] (H-[dY][d4Pal]NSF[azaGly]L[Arg(Me)]F-NH2)	98.4% (non-toxic)		107% (non-toxic)
Cc1c(N2CCCC2)nc2ccc(Br)cc2c1C(=O)NC[C@H](CCC(=O)O)c1ccccc1Cl [BAY-6672]	106% (non-toxic)	111% (non-toxic)	
COCCOc1nc(-c2ccc(Cl)nc2)nc2c1CN(C(=O)c1ncn3ccccc13)CC2 [THPP-1]	116% (non-toxic)		118% (non-toxic)
CCC(F)(F)c1cc(N2CCC(S(C)(=O)=O)CC2)nc2sc(C(N)=O)c(N)c12 [BI-605906]	103% (non-toxic)	134% (non-toxic)	
CC(=O)N1CCC(c2ccc(C(=O)NC(=N)N)cc2C(F)(F)F)CC1 [BI 9627]	78.4% (non-toxic)	106% (non-toxic)	
C[C@@H](c1cccc(CN)c1)n1cc(Cl)cc(C(N)=O)c1=N	104% (non-toxic)	111% (non-toxic)	
Cc1c(NC(=O)COc2ccc(Cl)cc2C(=O)c2cc(F)cc(C(F)(F)F)c2)ccc(C(=O)O)c1F [BI 2540]	95.6% (non-toxic)	93.1% (non-toxic)	
CNCc1ccccc1-c1csc([C@@H](C)Nc2nc(C)nc3cc(OC)c(OC)cc23)c1 [BAY-293]	120% (non-toxic)	0.873% (toxic)	
O=C(NCCN1CCOCC1)c1ccc2c(c1)C(=O)c1ccc(Nc3ccc(F)c(NC(=O)c4ccccc4)c3)cc1CC2 [FS-694]	74.8% (non-toxic)	84.2% (non-toxic)	
C[C@H](c1ccc(F)cc1)N(Cc1cccc(C(=O)O)c1)C(=O)c1cnc2ccccc2c1 [PF-05105679]	126% (non-toxic)	120% (non-toxic)	
Nc1nc(NCc2ccccc2)nc(-c2ccccc2CO)n1 [Ogerin]	94.3% (non-toxic)	115% (non-toxic)	
Cc1cc(Nc2nccc(C)n2)cc(-c2cnc([C@@]3(O)CC[C@H](C(=O)O)C(C)(C)C3)s2)c1 [MRL-SYKi]	95.5% (non-toxic)		98.8% (non-toxic)
CC(=O)Nc1c(C(C)=O)c(=O)n(C)c2nc(-c3ccc(Cl)cc3Cl)c(-c3ccc(Cl)cc3)cc12 [NAPHTHYRIDINONE]	117% (non-toxic)	121% (non-toxic)	
NC(=O)c1ccc2nc(-c3ccc(C4(N)CCC4)cc3)c(-c3ccccc3)n2n1 [BAY-1125976]	75.2% (non-toxic)		94.8% (non-toxic)
CN(C)C(=O)Cn1cc(-c2nc([C@@](C)(c3ccc(-c4cnc(N)nc4)cc3)C3CC3)no2)cn1 [BI 665915]	84.4% (non-toxic)		104% (non-toxic)
O=C(O)[C@H]1[C@H](Cn2nnc3ccccc3c2=O)CC[C@@H]1C(=O)c1ccc(OCCC2CCOCC2)cc1 [BAY-7598]	97.3% (non-toxic)		96.9% (non-toxic)
Nc1c(C(=O)NCc2ccc(C(=O)NCCCC3CCCCC3)cc2)cnn1-c1ccccc1 [SR-318]	89.8% (non-toxic)		81.4% (non-toxic)
CCCCN(CCCC)C(=O)CN1C[C@H](c2cc(OC)c3c(c2)OCO3)[C@@H](C(=O)O)[C@@H]1CC(C)(C)CCC	83.6% (non-toxic)		107% (non-toxic)
CNC(=O)c1ccc(Nc2ncc(C(F)(F)F)c(NCc3nccnc3N(C)S(C)(=O)=O)n2)cc1 [DEFACTINIB]	55.4% (toxic)		46.1% (toxic)
CNC(=O)Nc1ccc2c(c1)CC[C@@]21OC(=O)N(CC(=O)N(Cc2ccc(F)cc2)[C@@H](C)C(F)(F)F)C1=O [A-485]	69.1% (toxic)		102% (non-toxic)
Cc1ccccc1Oc1cc(-n2c(=O)cc(C(F)(F)F)[nH]c2=O)c2ccccc2c1Cl [BAY-069]	82.5% (non-toxic)	62.5% (toxic)	
